Assay results: ChEMBL document CHEMBL1134411, “Antitumor benzothiazoles. 14. Synthesis and in vitro biological properties of fluorinated 2-(4-aminophenyl)benzothiazoles” (2001)

Assays:
Type in all cases: functional
MCF7 = experiment: Growth inhibition against breast cancer line MCF-7; conditions: Homo sapiens
[1] = Growth inhibition against cancer cell line TH-10; conditions: Homo sapiens, Cancer cell lines
NCI-H226 = experiment: Growth inhibition against non-small cell lung cancer cell line […]; conditions: Homo sapiens
OVCAR-5 = experiment: Growth inhibition against ovarian cancer cell line OVCAR-5; conditions: Homo sapiens
NCI-H460 = experiment: Growth inhibition against non-small cell lung cancer cell line NCI-H460; conditions: Homo sapiens
OVCAR-4 = experiment: Growth inhibition against ovarian cancer cell line OVCAR-4; conditions: Homo sapiens
T47D = experiment: Growth inhibition against breast cancer line T-47-D; conditions: Homo sapiens
[2] = Growth inhibition against ovarian cancer cell line IGROV1; conditions: Homo sapiens, IGROV-1
[3] = Mean GI50 values are recorded over the NCI 60-cell panel.; conditions: Homo sapiens
HCC 2998 = experiment: Growth inhibition against colon cancer cell line HCC2998; conditions: Homo sapiens

Compound	GI50 (MCF7) [µM]	GI50 [1] [µM]	GI50 (NCI-H226) [µM]	GI50 (OVCAR-5) [µM]	GI50 (NCI-H460) [µM]	GI50 (OVCAR-4) [µM]	GI50 (T47D) [µM]	GI50 [2] [µM]	GI50 [3] [µM]	GI50 (HCC 2998) [µM]
Cc1cc(-c2nc3ccccc3s2)ccc1N	< 0.01	< 0.01	18.6	1.9	29.5	1.1	0.02	< 0.01	12.9	
Cc1cc(-c2nc3ccc(O)cc3s2)ccc1N	56.2	77.6	60.3	83.2		37.2	22.4	47.9	41.7	> 100
Nc1ccc(-c2nc3ccc(F)cc3s2)cc1	< 0.01	26.3	46.8	26.9	24.5	22.9		21.3	30.2	17.8
Nc1ccc(-c2nc3cc(F)ccc3s2)cc1	< 0.01	11.5	< 0.01	29.5	0.87	13.5	0.26	11.5	23.4	
Cc1cc(-c2nc3cc(F)ccc3s2)ccc1N	< 0.01	< 0.01	1.3	< 0.01	0.05	< 0.01	< 0.01	< 0.01	4.4	
Nc1ccc(-c2nc3cc(F)ccc3s2)cc1Br	< 0.01	0.05	0.13	0.05	0.11	24	0.02	< 0.01	5.1	< 0.01
Cc1cc(-c2nc3cccc(F)c3s2)ccc1N	< 0.01	0.04		1.3	4.2	7.4	0.02	0.07	20	13.8
Nc1ccc(-c2nc3ccc(F)cc3s2)cc1Cl	< 0.01	< 0.01	14.1	0.07	0.1	0.02		< 0.01	22.3	0.09
Nc1ccc(-c2nc3cc(F)ccc3s2)cc1I	< 0.01	0.07	10.2	0.28		< 0.01	0.13	< 0.01	7.6	< 0.01
Cc1cc(-c2nc3cc(F)c(F)cc3s2)ccc1N	< 0.01	< 0.01		> 100	> 100	60.3	< 0.01	< 0.01	67.6	> 100
Nc1ccc(-c2nc3ccc(F)cc3s2)cc1I	< 0.01	< 0.01	0.07	0.1	> 100	0.03	< 0.01	< 0.01	33.9	0.32
Nc1ccc(-c2nc3ccccc3s2)cc1F	< 0.01	< 0.01	< 0.01	< 0.01	< 0.01	18.6	< 0.01	< 0.01	14.5	0.1
Nc1ccc(-c2nc3cc(F)ccc3s2)cc1Cl	< 0.01		0.03	< 0.01	0.04	0.32	0.04	< 0.01	5.8	
Cc1cc(-c2nc3c(F)cccc3s2)ccc1N	< 0.01		5.5	1.7	1	20.9	< 0.01	22.9	34.6	> 100
Nc1ccc(-c2nc3ccccc3s2)cc1C(F)(F)F	1.5	13.2	15.1	17.4	14.5	15.8	5.4	2.6	14.1	10.7
Cc1cc(-c2nc3ccc(F)cc3s2)ccc1N	< 0.01	< 0.01	60.3	> 100	0.1	0.01		1.3	47.9	34.7
